Converted amounts (≈) assume the structure as drawn.
What was measured:
Soybean = assay: Post-emergent herbicidal test, soybean; type: in vivo; set-up: key: 1: no perceptible injury; 2: intermediate degrees of injury; 3: intermediate degrees of injury; 4: intermediate degrees of injury; 5: the plant was dead; conditions: 2500 parts per million, after ten days; for Post-emergent Herbicidal, Soybean: Table II; for Post Emergent Herbicidal, Soybean: Table III
Experimental: (§1) Suspensions of the test compounds were prepared by dissolving one gram of compound in 50 milliliters of acetone in which had been dissolved 0.1 gram (10 percent of the weight of compound) of an alkylphenoxyethanol sufactant, as an emulsifying or dispersing agent. The resulting solution was mixed into 160 milliliters of water to give roughly 200 milliliters of a suspension containing the compound in finely divided form. The thus prepared stock suspension contained 0.5 percent by weight of compound. The test concentrations employed in the tests described below were obtained by diluting the stock suspension with water. The test procedures were as follows:
(§2) Experiments were also conducted to determine the phytotoxicity of representative compositions with respect to healthy fresh plants. Solutions of the compounds were prepared as described above to provide a concentration of 2500 parts per million of the test compound. The test plants were sprayed in accordance with the procedure described above for the Mite Foliage Spray Test so as to deliver approximately 100 milliliters of test solutions to the leaves of each plant tested. The sprayed plants and controls were set aside for approximately one hour to allow the solutions to dry and were then placed in the greenhouse. After ten days the plants were visually inspected to determine the extent of foliage injury. A rating of 1 indicates no perceptible injury; 5 indicates the plant was dead and ratings of 2, 3 and 4 indicate intermediate degrees of injury based upon the number and extent to which leaves were injured.

Bean = assay: Post-emergent herbicidal test, bean; type: in vivo; set-up: key: 1: no perceptible injury; 2: intermediate degrees of injury; 3: intermediate degrees of injury; 4: intermediate degrees of injury; 5: the plant was dead; conditions: 2500 parts per million, after ten days; for Post-emergent Herbicidal, Bean: Table II; for Post Emergent Herbicidal, Bean: Table III
Experimental: as §1, §2

[1] = tested on: egg of the two-spotted mite; assay: Mite Ovicide Test (eggs); type: in vivo, Tetranychus urticae (Koch); set-up: key to Miticidal, Egg: A: Excellent Control; B: Partial Control; No Control; conditions: for Miticidal, Egg: Table II, unhatched eggs after four days; for LC50: Tetranychus urticae, Table III, ppm required for a 50 percent kill of eggs, read-out: Miticidal LD50, Egg
Experimental: Suspensions of the test compounds were prepared by dissolving one gram of compound in 50 milliliters of acetone in which had been dissolved 0.1 gram (10 percent of the weight of compound) of an alkylphenoxyethanol sufactant, as an emulsifying or dispersing agent. The resulting solution was mixed into 160 milliliters of water to give roughly 200 milliliters of a suspension containing the compound in finely divided form. The thus prepared stock suspension contained 0.5 percent by weight of compound. The test concentrations employed in the tests described below were obtained by diluting the stock suspension with water. The test procedures were as follows: The test organism was the egg of the two-spotted mite (Tetranychus urticae (Koch)), as obtained from adults reared on […] bean plants under controlled conditions of 80±5° F. and 50±5 percent relative humidity. Heavily infested leaves from a stock culture were placed on the primary leaves of two bean plants six to eight inches in height growing in a two-and-a-half inch clay pot. Females were allowed to oviposit for a period of 48 hours and the leaves of the infested plants were dipped in a solution containing 800 parts of tetraethyl pyrophosphate per million parts of water in order to destroy the reproductory forms and thus prevent further egg laying. […] The plants were allowed to dry thoroughly. The test compounds were formulated by diluting the stock suspension with water to give a suspension containing varying amounts of test compound per million parts of final formulation. The potted plants (one pot per compound) were placed on a revolving turntable and sprayed with 100-110 milliliters of test compound formulation by use of a DeVilbis spray gun set at 40 spig. air pressure. This application which lasted 30 seconds, was sufficient to wet the plants to run-off. As a control, 100-110 milliliters of a water solution containing acetone and emulsifier in the same concentrations as the test compound formulation, but containing no test compound, were also sprayed on plants infested with eggs. The sprayed plants were held at 80±5° F. and 50±5 percent relative humidity for four days, after which a microscopic examination was made of unhatched (dead) and hatched (living) eggs. In these tests the pesticidal activity of the compounds against mites and mite eggs was rated as follows: Tests were conducted in accordance with the procedures given at pages 17 to 21 supra. The results are expressed in the same manner as used in Table II, except with respect to miticidal activity. For mite adult and mite egg comparison purposes, results are given in parts per million (ppm) required for a 50 percent kill of mites or eggs, respectively.

[2] = tested on: Red root pigweed (Amaranthus); assay: Preliminary herbicide seed germination test (pre-emergent), red root pigweed; type: in vivo, Amaranthus retroflexus; set-up: key: 5: no seedling emerged; 4: few seedlings emerged and/or very severe stunting; 3: moderate reduction in stand and/or moderate stunting.; 2: very slight reduction in stand and/or slight stunting; 1: no injury, seedlings appear no different with respect to stand or growth than untreated controls; conditions: ten to twelve days after application
Experimental: as §1
(§3) The following seeds were used in this test:
Red root pigweed--Amaranthus retroflexus
(§4) Two […] mixtures were prepared as follows:
(§5) Each of the above mixtures was rolled separately in 5 gallon containers for approximately one-half hour on ball mill to insure uniform mixing of seeds and soil. For each compound four 3-inch pots were filled with soil to within 11/2 inches of top of pots. To two of these pots were added 70 cc. of Mixture I. To the remaining 2 pots were added 70 cc. of Mixture II. The seed-soil mixture was tamped firmly, and the pots were removed to the greenhouse and watered lightly. About 2 hours after planting, 25 milliliters of the test formulation were added to one pot containing Mixture I and one pot containing Mixture II. An equal volume of a water solution containing acetone and an emulsifier in the same concentration as the herbicidal mixture but without the candidate herbicide was also added to each of the soil-seed mixtures. These pots are used as check or control units. The test compounds were formulated by diluting the stock suspension with water to obtain the desired concentration of the compound in parts per million of the final formulation. Each compound was tested at the same concentration. […] Ratings were made according to the following designations: […]

Tomato = assay: Post-emergent herbicidal test, tomato; type: in vivo; set-up: key: 1: no perceptible injury; 2: intermediate degrees of injury; 3: intermediate degrees of injury; 4: intermediate degrees of injury; 5: the plant was dead; conditions: 2500 parts per million, after ten days; for Post-emergent Herbicidal, Tomato: Table II; for Post Emergent Herbicidal, Tomato: Table III
Experimental: as §1, §2

Mustard = assay: Preliminary herbicide seed germination test (pre-emergent), mustard; type: in vivo, Brassica pincea var. foliosa (Florida broadleaf); set-up: key: 5: no seedling emerged; 4: few seedlings emerged and/or very severe stunting; 3: moderate reduction in stand and/or moderate stunting.; 2: very slight reduction in stand and/or slight stunting; 1: no injury, seedlings appear no different with respect to stand or growth than untreated controls; conditions: ten to twelve days after application
Experimental: as §1, §3
Mustard--Brassica pincea var. foliosa (Florida broadleaf)
as §4, §5

Crabgrass = assay: Preliminary herbicide seed germination test (pre-emergent), crabgrass; type: in vivo, Digitaria sanguinalis; set-up: key: 5: no seedling emerged; 4: few seedlings emerged and/or very severe stunting; 3: moderate reduction in stand and/or moderate stunting.; 2: very slight reduction in stand and/or slight stunting; 1: no injury, seedlings appear no different with respect to stand or growth than untreated controls; conditions: ten to twelve days after application
Experimental: as §1, §3
Crabgrass--Digitaria sanguinalis
as §4, §5

With `CCCCC(CC)C(=O)OC1=C(c2cc(C)ccc2C)C(=O)C(C)C1` (stereo not drawn) [Compound 17] the “Post-emergent Herbicidal, Soybean” value (Soybean) was 3, the “Post-emergent Herbicidal, Bean” value (Bean) was 3 and the “Miticidal, Egg” value [1] was “A”. For the same compound, the “Pre-emergent Herbicidal, Amaranthus” value ([2]; Table II) was 3, the “Post-emergent Herbicidal, Tomato” value (Tomato) was 1 and the “Pre-emergent Herbicidal, Mustard” value (Mustard; Table II) was 1. For the same compound, the “Pre-emergent Herbicidal, Crabgrass” value (Crabgrass; Table II) was 1.
In the case of `Cc1ccc(C2=C(OC(=O)c3ccccc3)CCC2=O)c(C)c1` [Compound 10], the “Post-emergent Herbicidal, Soybean” value (Soybean) is reported as 1, the “Post-emergent Herbicidal, Bean” value (Bean) is reported as 3 and the “Miticidal, Egg” value [1] is reported as “B”. For the same compound, the “Pre-emergent Herbicidal, Amaranthus” value ([2]; Table II) was 1, the “Post-emergent Herbicidal, Tomato” value (Tomato) was 1 and the “Pre-emergent Herbicidal, Mustard” value (Mustard; Table II) was 1. The “Pre-emergent Herbicidal, Crabgrass” value (Crabgrass; Table II) was 2.
In the case of `CCCCC(CC)C(=O)OC1=C(c2ccccc2C)C(=O)CC1` (stereo not drawn) [Compound 7], the “Post-emergent Herbicidal, Soybean” value (Soybean) is reported as 2, the “Post-emergent Herbicidal, Bean” value (Bean) is reported as 2 and the “Miticidal, Egg” value [1] is reported as “A”. For the same compound, the “Pre-emergent Herbicidal, Amaranthus” value ([2]; Table II) was 3, the “Post-emergent Herbicidal, Tomato” value (Tomato) was 2 and the “Pre-emergent Herbicidal, Mustard” value (Mustard; Table II) was 1. The “Pre-emergent Herbicidal, Crabgrass” value (Crabgrass; Table II) was 3.
In the case of `CCCCCCCCCCCCCCCC(=O)OC1=C(c2ccccc2C)C(=O)CC1` [Compound 8], the “Post-emergent Herbicidal, Soybean” value (Soybean) is reported as 3, the “Post-emergent Herbicidal, Bean” value (Bean) is reported as 3 and the “Miticidal, Egg” value [1] is reported as “B”. For the same compound, the “Pre-emergent Herbicidal, Amaranthus” value ([2]; Table II) was 3, the “Post-emergent Herbicidal, Tomato” value (Tomato) was 1 and the “Pre-emergent Herbicidal, Mustard” value (Mustard; Table II) was 1. For the same compound, the “Pre-emergent Herbicidal, Crabgrass” value (Crabgrass; Table II) was 2.
With `CCCCCCCCCC(=O)OC1=C(c2ccccc2C)C(=O)c2ccccc21` [reference compound] the “Post Emergent Herbicidal, Soybean” value (Soybean) was 0, the “Post Emergent Herbicidal, Bean” value (Bean) was 1 and the LC50 [1] was 500 µg/mL (≈ 1280 µM). For the same compound, the “Pre-emergent Herbicidal, Amaranthus” value ([2]; Table III) was 1, the “Post Emergent Herbicidal, Tomato” value (Tomato) was 1 and the “Pre-emergent Herbicidal, Mustard” value (Mustard; Table III) was 1. For the same compound, the “Pre-emergent Herbicidal, Crabgrass” value (Crabgrass; Table III) was 1.
For `CCCCC(CC)C(=O)OC1=C(c2ccccc2C)C(=O)c2ccccc21` (stereo not drawn) [reference compound], the “Post Emergent Herbicidal, Soybean” value (Soybean) was 0, the “Post Emergent Herbicidal, Bean” value (Bean) was 1 and the LC50 [1] was 60 µg/mL (≈ 166 µM). For the same compound, the “Pre-emergent Herbicidal, Amaranthus” value ([2]; Table III) was 1, the “Post Emergent Herbicidal, Tomato” value (Tomato) was 1 and the “Pre-emergent Herbicidal, Mustard” value (Mustard; Table III) was 1. The “Pre-emergent Herbicidal, Crabgrass” value (Crabgrass; Table III) was 1.
For `CCCCCCCCCCCCCCCC(=O)OC1=C(c2cc(C)ccc2C)C(=O)C2CCCCC12` (stereo not drawn) [Compound 33], the “Post-emergent Herbicidal, Soybean” value (Soybean) was 1, the “Post-emergent Herbicidal, Bean” value (Bean) was 1 and the “Miticidal, Egg” value [1] was “A”. The “Pre-emergent Herbicidal, Amaranthus” value ([2]; Table II) was 1, the “Post-emergent Herbicidal, Tomato” value (Tomato) was 1 and the “Pre-emergent Herbicidal, Mustard” value (Mustard; Table II) was 1. For the same compound, the “Pre-emergent Herbicidal, Crabgrass” value (Crabgrass; Table II) was 1.
With `CCCCC(CC)C(=O)OC1=C(c2ccccc2Cl)C(=O)CC1` (stereo not drawn) [Compound 1] the “Post-emergent Herbicidal, Soybean” value (Soybean) was 3, the “Post-emergent Herbicidal, Bean” value (Bean) was 3 and the “Miticidal, Egg” value [1] was “A”. For the same compound, the “Pre-emergent Herbicidal, Amaranthus” value ([2]; Table II) was 5, the “Post-emergent Herbicidal, Tomato” value (Tomato) was 2 and the “Pre-emergent Herbicidal, Mustard” value (Mustard; Table II) was 5. The “Pre-emergent Herbicidal, Crabgrass” value (Crabgrass; Table II) was 5.
For `CCCCCCCCCCCCCCCC(=O)OC1=C(c2ccccc2C)C(=O)c2ccccc21` [reference compound], the “Post Emergent Herbicidal, Soybean” value (Soybean) was 0, the “Post Emergent Herbicidal, Bean” value (Bean) was 1 and the LC50 [1] was 60 µg/mL (≈ 126 µM). For the same compound, the “Pre-emergent Herbicidal, Amaranthus” value ([2]; Table III) was 1, the “Post Emergent Herbicidal, Tomato” value (Tomato) was 1 and the “Pre-emergent Herbicidal, Mustard” value (Mustard; Table III) was 1. For the same compound, the “Pre-emergent Herbicidal, Crabgrass” value (Crabgrass; Table III) was 1.
For `CCCCC(CC)C(=O)OC1=C(c2cc(C)ccc2C)C(=O)C2CCCCC12` (stereo not drawn) [Compound 30, 3-(2-ethylhexanoyloxy)-2-(2',5'-dimethylphenyl)-4,5,6,7,8,9-hexahydro-2-indenone], the “Post-emergent Herbicidal, Soybean” value (Soybean) was 1, the “Post-emergent Herbicidal, Bean” value (Bean) was 1 and the “Miticidal, Egg” value [1] was “A”. For the same compound, the “Pre-emergent Herbicidal, Amaranthus” value ([2]; Table II) was 1, the “Post-emergent Herbicidal, Tomato” value (Tomato) was 1 and the “Pre-emergent Herbicidal, Mustard” value (Mustard; Table II) was 1. For the same compound, the “Pre-emergent Herbicidal, Crabgrass” value (Crabgrass; Table II) was 1.
`CC(=O)OC1=C(c2cc(C)ccc2C)C(=O)CC1` [Compound 11] was tested, and the “Post-emergent Herbicidal, Soybean” value (Soybean) was 2, the “Post-emergent Herbicidal, Bean” value (Bean) was 2 and the “Miticidal, Egg” value [1] was “C”. The “Pre-emergent Herbicidal, Amaranthus” value ([2]; Table II) was 3, the “Post-emergent Herbicidal, Tomato” value (Tomato) was 3 and the “Pre-emergent Herbicidal, Mustard” value (Mustard; Table II) was 3. For the same compound, the “Pre-emergent Herbicidal, Crabgrass” value (Crabgrass; Table II) was 1.
`CCCCCCCCCCCCCCCC(=O)OC1=C(c2ccccc2C)C(=O)C2CCCCC12` (stereo not drawn) [drawing 17] was tested, and the “Post Emergent Herbicidal, Soybean” value (Soybean) was 2, the “Post Emergent Herbicidal, Bean” value (Bean) was 1 and the LC50 [1] was 500 µg/mL (≈ 1040 µM). For the same compound, the “Pre-emergent Herbicidal, Amaranthus” value ([2]; Table III) was 2, the “Post Emergent Herbicidal, Tomato” value (Tomato) was 1 and the “Pre-emergent Herbicidal, Mustard” value (Mustard; Table III) was 3. The “Pre-emergent Herbicidal, Crabgrass” value (Crabgrass; Table III) was 3.

— patent US4551547A, “Biocidal 2-aryl-1, 3-cyclopentanedione enol ester compounds” (Union Carbide Corporation, priority 1983, dated 1985)
